Data on seven compounds can be found in paper PMC11435393, “Novel Pyrrole Derivatives as Multi-Target Agents for the Treatment of Alzheimer’s Disease: Microwave-Assisted Synthesis, In Silico Studies and Biological Evaluation” (Pharmaceuticals, 2024).

The nature of data set [1]: ABTS radical scavenging assay. The note with it: 1 mg/mL, 734 nm. The procedure:
The radical scavenging properties of the newly synthesized structures were also calculated with the help of a ABTS test according to a modified method of Arnao et al.. The tests were conducted in methanol at room temperature. The absorbance of the solutions was measured at λ = 734 nm. The stable ABTS radical was produced by mixing 7 mmol/L solution of ABTS and 2.4 mmol/L solution of potassium persulphate, which were allowed to react for 14 h in the dark at room temperature. The working solutions were made of 2 mL of the stock solution diluted in 50 mL of methanol with an absorbance of 0.30 ± 0.04 units at […]. In total, 1 mL of the ABTS working solution was allowed to react with the pyrrole derivatives with concentrations of 1 mg/mL for 10 min. The inhibition percentage was calculated by applying the same formula as the DPPH assay.

The target of the next data set is T1, human recombinant MAOB (Homo sapiens, UniProt P27338).
T1 sequence (P27338 1-520): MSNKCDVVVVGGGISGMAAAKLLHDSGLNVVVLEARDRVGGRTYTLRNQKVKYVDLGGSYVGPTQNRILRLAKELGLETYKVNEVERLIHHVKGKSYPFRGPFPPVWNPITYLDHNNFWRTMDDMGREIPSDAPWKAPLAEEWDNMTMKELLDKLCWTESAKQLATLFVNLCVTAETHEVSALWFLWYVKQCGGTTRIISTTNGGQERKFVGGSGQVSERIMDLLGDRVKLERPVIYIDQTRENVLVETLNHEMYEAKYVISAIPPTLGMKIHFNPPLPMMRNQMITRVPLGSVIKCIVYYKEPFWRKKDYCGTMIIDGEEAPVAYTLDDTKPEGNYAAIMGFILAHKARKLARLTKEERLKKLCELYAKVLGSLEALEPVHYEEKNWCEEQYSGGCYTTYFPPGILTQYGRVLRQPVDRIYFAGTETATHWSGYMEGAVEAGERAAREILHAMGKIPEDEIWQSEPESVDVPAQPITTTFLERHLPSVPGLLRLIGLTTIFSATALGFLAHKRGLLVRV
As to the kind of experiment: biochemical. The class given is biochemical. The note with it: for hMAOB inhibition (decrease of hMAOB activity vs control): 1 μM; for IC50: mean ± SD, 2 h exposure, read-out: IC50 (EC50) hMAOB. The protocol: The title compounds were tested for hMAOB activities by an in vitro method.
(§1) The examined compounds were evaluated for possible inhibitory capacity on human recombinant MAOA and MAOB enzymes by using the Amplex UltraRed (Sigma Aldrih and Acros, Merck KGaA, Darmstadt, Germany) reagent with some modifications. All reagents were prepared in accordance with the producer’s instructions. As a substrate the tyramine hydrochloride was used for hMAO-B and p-benzylamine for hMAO-A. The reaction mixture included a stock solution of Amplex Red, the reaction buffer at pH 7.4 and the storage solution of horseradish peroxidase (10 U/mL). Five concentrations of the exam compounds were applied. The combination: compounds + hMAOA/B was placed in a 96-well plate, and then the plate was incubated for 30 min (dark, at 37 °C). The reaction was started by the addition of 50 μL of the mix solution: Amplex Red, horseradish peroxidase, and tyramine/p-benzylamine, as an enzyme substrate, in the reaction buffer. The fluorescence was measured every 30 min until 150 min, in dark, while shaking the reaction mixture at constant temperature of 37 °C. The fluorimetric measurements were assessed using a Synergy 2 Microplate Reader (BioTek, Winooski, VT, USA).
(§2) The in vitro results (MAO-A, MAO-B and AChE inhibitory capacities) were expressed as a mean ± SD (n = 3). Values of p < 0.05 were considered statistically significant.

Another data set concerns the target T2, human recombinant MAOA (Homo sapiens, UniProt P21397).
T2 sequence (P21397 1-527): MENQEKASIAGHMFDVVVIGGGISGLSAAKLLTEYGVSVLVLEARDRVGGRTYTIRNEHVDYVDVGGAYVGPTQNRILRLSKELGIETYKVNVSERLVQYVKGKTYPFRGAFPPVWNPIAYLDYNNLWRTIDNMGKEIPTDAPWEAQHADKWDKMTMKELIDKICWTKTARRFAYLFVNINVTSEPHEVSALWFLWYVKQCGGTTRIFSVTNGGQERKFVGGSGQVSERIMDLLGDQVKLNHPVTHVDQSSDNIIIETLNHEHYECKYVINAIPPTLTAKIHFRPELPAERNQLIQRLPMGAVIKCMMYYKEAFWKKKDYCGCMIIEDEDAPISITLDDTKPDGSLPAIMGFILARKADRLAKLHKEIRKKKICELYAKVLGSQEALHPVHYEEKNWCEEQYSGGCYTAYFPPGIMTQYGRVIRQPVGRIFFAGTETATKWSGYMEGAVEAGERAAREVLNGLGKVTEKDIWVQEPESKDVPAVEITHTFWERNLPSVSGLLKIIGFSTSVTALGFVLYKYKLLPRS
As to the kind of experiment: hMAOA enzyme assay (Amplex UltraRed, fluorimetric). The class given is biochemical. As to conditions: mean ± SD; read-out: IC50 (EC50) hMAOA. The protocol: To observe the selectivity index of the title compounds, in vitro tests against MAO-A were carried out. The novel molecules were tested in the same concentrations as applied in the MAO-B evaluations—1 μM.
as §1, §2

In a further data set the target is eeAChE (Electrophorus electricus, UniProt O42275). The experiment in a line: biochemical. As to conditions: for inhibition at 10 µM: read-out: AChE inhibition; for IC50 / IC50 (EC50) AChE: mean ± SD; for IC50: read-out: IC50 (EC50) AChE; for inhibition at 10 µM / AChE inhibition: 10 μM. The protocol: The AChE potentials of the new valine-based molecules were evaluated according to a modified Ellman’s method. Initially, stock solutions (1 mg/mL) of the new structures were diluted in DMSO and five solutions were prepared by dilutions in order to access the inhibitory potential in different concentrations. Thereafter, the pyrrole-based molecules were incubated with sodium phosphate buffer, and AChE solution for ten minutes at 37 °C. The reaction was started by the addition of 5,5-dithio-bis-(2-nitrobenzoic acid) (DTNB) (10 mM; 20 μL) and acetylthiocholine iodide (14 mM; 20 μL). […] The percent inhibition activity was measured against the blank probe. Donepezil was utilized as a standart acetylcholinesterase inhibitor. The results were expressed as a mean ± SD (n = 3). Values of p < 0.05 were observed as statistically significant.
as §2

The nature of data set [2]: DPPH radical scavenging assay. The note with it: 1 mg/mL, 517 nm. The procedure:
The test observes the hydrogen donating capacity of the molecules which is shown with a decrease in the absorbance at 517 nm. The DPPH radical scavenging activity of the title hydrazide vh0 and hydrazide–hydrazones vh1-4 was determined in 1 mg/mL concentration with Trolox applied as a standard.
The radical scavenging activities of the title compounds were examined with a DPPH (2,2- diphenyl-1-picrylhydrazyl) test. A solution of DPPH has an intense violet color and a UV absorption at 515 nm could be observed. The presence of an antioxidant leads to visible decolorization of the sample and the absorption could be measured. Here, the scavenging rate of the DPPH radical was carried out by the widely employed classical protocol of Brand-Williams et al.. A 1 mg/mL of the title compounds were reacted with methonol solution of the DPPH (1 mmol/L). Thereafter, the obtained mixture was left in a dark palce for 15 min. The absorbance was assessed at 517 nm. Three measurements were conducted for each sample and Trolox was used as a standard.
(In general: The DPPH test is a chemical assay of radical scavenging.)

Data set [3] in a line: PAMPA-BBB permeability test. The procedure: Thus, the passive diffusion of vh0 was evaluated using an in vitro permeability test.
The in vitro Parallel Artificial Permeability Assay—blood brain barrier (PAMPA-BBB) test was carried out by PAMPA Permeability Analyzer (pIONInc, Billerica, MA, USA). The permeabilities (Pe) of the dual-acting pyrrole-based hydrazide—vh0, were evaluated considering the manufacturer BBB Protocol. Initially, the stock solutions of vh0 and reference molecules were dissolved in DMSO and diluted with Prisma HT buffer pH 7.4 (Pion Inc. Billerica, MA, USA) to reach a concentration of 50 μM. The well plates were filled with 200 µL BSB (Brain Skin Buffer). The incubation was established for 4 h at 25 °C with no stirring. The permeability of the structures was evaluated by accessing their concentrations in both the donor and acceptor phases spectrophotometrically. The permeability coefficients were calculated by PAMPA Explorer Command Software and presented as –logPe.
A general note: In PAMPA a lipid-coated filter parts donor from acceptor wells.

The conditions of data set [4]: cited from earlier work.

“And” between values parts separate entries of the source, which are not always exact repeats. Equal values may be shown once. Where a name gives a salt, the structure may show the parent alone.

eeAChE, sequence (O42275 24-633): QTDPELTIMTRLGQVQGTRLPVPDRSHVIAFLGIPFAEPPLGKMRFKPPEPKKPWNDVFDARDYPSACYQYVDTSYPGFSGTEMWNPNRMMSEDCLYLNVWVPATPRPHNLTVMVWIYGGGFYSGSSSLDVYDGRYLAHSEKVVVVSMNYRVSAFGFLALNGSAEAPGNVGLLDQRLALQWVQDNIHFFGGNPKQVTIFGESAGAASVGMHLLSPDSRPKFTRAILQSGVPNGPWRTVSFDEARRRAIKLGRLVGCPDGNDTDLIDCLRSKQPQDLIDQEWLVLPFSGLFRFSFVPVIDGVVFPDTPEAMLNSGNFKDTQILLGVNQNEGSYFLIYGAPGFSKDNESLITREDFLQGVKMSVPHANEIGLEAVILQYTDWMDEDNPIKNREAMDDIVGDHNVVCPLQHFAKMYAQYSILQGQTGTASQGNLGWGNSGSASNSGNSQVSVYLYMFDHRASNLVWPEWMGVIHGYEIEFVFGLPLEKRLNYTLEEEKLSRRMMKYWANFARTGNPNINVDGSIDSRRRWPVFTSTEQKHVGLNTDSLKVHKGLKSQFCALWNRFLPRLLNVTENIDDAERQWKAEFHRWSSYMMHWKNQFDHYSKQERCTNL

Consider `CCOC(=O)c1cc(-c2ccc(Br)cc2)n(C(C(=O)N/N=C/c2ccc(Cl)cc2)C(C)C)c1C` (stereo not drawn) [vh1], for which the ABTS radical-binding activity in data set [1] is recorded as 73.67%. Further, on human recombinant MAOB, the “SI: hMAOB selectivity index = IC50(hMAO-A)/IC50(hMAO-B)” value is given as over 134, the “hMAOB inhibition (decrease of hMAOB activity vs control)” value is listed as “moderate activity” and the IC50 came to 0.744 ± 0.18 µM. Moreover, at human recombinant MAOA, the IC50 is over 100 µM. At eeAChE, the inhibition at 10 µM was found to be 19% and the IC50 is 18.8 ± 0.91 µM.

As for `CCOC(=O)c1cc(-c2ccc(Br)cc2)n(C(C(=O)NN)C(C)C)c1C` (stereo not drawn) [vh0], the “DPPH radical scavenging activity” value in data set [2] came out at 76.10%. In data set [1], this compound had an ABTS radical-binding activity of 99.40%. In addition, on human recombinant MAOB, the “SI: hMAOB selectivity index = IC50(hMAO-A)/IC50(hMAO-B)” value is given as over 150, the “hMAOB inhibition (decrease of hMAOB activity vs control)” value is given as 30% and the IC50 was 0.665 ± 0.2 µM. Besides, the IC50 at human recombinant MAOA is over 100 µM. Moreover, on eeAChE, the inhibition at 10 µM turned out to be 62% and the IC50 stood at 4.15 ± 1.31 µM. For the same compound, in data set [3] (PAMPA-BBB), the BBB permeability class result is listed as “medium (When 6 < –logPe < 5 the molecule is identified with a medium permeability)”. Also, the “PAMPA BBB −logPe” value in data set [3] (pH 7.4, 50 μM, 4 h at 25 °C) was 5.451 and 5.451 ± 0.005.

Turning to `CCOC(=O)c1cc(-c2ccc(Br)cc2)n(C(C(=O)N/N=C/c2ccc(OC)cc2)C(C)C)c1C` (stereo not drawn) [vh3], the ABTS radical-binding activity in data set [1] worked out at 58.27%. Moreover, on human recombinant MAOB, the “SI: hMAOB selectivity index = IC50(hMAO-A)/IC50(hMAO-B)” value is reported as over 1 and the IC50 is over 100 µM. The IC50 at human recombinant MAOA is over 100 µM. Also, at eeAChE, the AChE inhibition result is recorded as “weak AChE blocking activity”, the inhibition at 10 µM stood at 26% and the IC50 came to 16.3 ± 2.15 µM.

With `CCOC(=O)c1cc(-c2ccc(Br)cc2)n(C(C(=O)N/N=C/c2cccc(F)c2)C(C)C)c1C` (stereo not drawn) [vh2], on human recombinant MAOB, the “SI: hMAOB selectivity index = IC50(hMAO-A)/IC50(hMAO-B)” value is on record as over 1 and the IC50 is over 100 µM. Besides, the half-maximal inhibitory concentration (IC50) at human recombinant MAOA is over 100 µM. In addition, at eeAChE, the AChE inhibition result is recorded as “weak AChE blocking activity”, the “IC50 (EC50) AChE” value was “inactive” and the IC50 was over 100 µM.

Take `CCOC(=O)c1cc(-c2ccc(Br)cc2)n(C(C(=O)N/N=C/c2ccc(OC)cc2OC)C(C)C)c1C` (stereo not drawn) [vh4]: at human recombinant MAOB, the “SI: hMAOB selectivity index = IC50(hMAO-A)/IC50(hMAO-B)” value is over 1 and the IC50 is over 100 µM. The IC50 on human recombinant MAOA was over 100 µM. For the same compound, at eeAChE, the “IC50 (EC50) AChE” value was “inactive” and the IC50 was over 100 µM.

`CC(C)NCC(O)COc1cccc2ccccc12` (stereo not drawn) [Propranolol HCl, propranolol hydrochloride, reference compound]: the “PAMPA BBB −logPe” value in data set [3] (PAMPA, 4 h, 50 μM, pH 7.4) is 4.949 ± 0.003. The “PAMPA BBB −logPe Literature” value in data set [4] is 3.7.

`Cc1c(C)c2c(c(C)c1O)CCC(C)(C(=O)O)O2` (stereo not drawn) [Trolox, reference compound]: in data set [2], the “DPPH radical scavenging activity” value came out at 90.07%. The compound also returned an ABTS radical-binding activity in data set [1] of 100%.

Usually IC50 stands for the point on the concentration scale where inhibition reaches its midpoint. The inhibition is the percentage by which the read-out fell short of the control.
